Experimental data published in patent publication US20080076746A1, “Method of Treating Fish and Crustaceans With a Tellurium Based Immunomodulator” (priority 2003, published 2008).
Entries after “also recorded” stand apart in the source; their conditions may differ.

Experiments:
[1] = test system: tilapia IL-10L; test: AS101 effect on intracellular IL-10L levels of tilapia PBL cell cultures (Western blot); format: cell-based, Tilapia hybrids (Oreochromis niloticus X O. aureus); conditions: 0.5 μg/ml AS101; dose-dependant; FIG. 1
Protocol: For in-vitro studies, AS101 was supplied as PBS solution, pH 7.4, at 4° C. For in-vivo experiments, AS101 powder was dissolved in the appropriate concentration in re-circulating water. PBL (peripheral blood leukocytes) were isolated from heparinized blood on a ficoll paque bed (Amersham Bioscience) and cultured as previously reported (9). For AS101 treatments, AS101 was added directly to the cultures at final concentration of 0.025 to 25 μg/ml, preferably 0.05 to 0.5 μg/ml. PBL were lysed as previously reported (6). Samples were electrophoresed on 12% SDS-PAGE and blotted with anti-human-IL-10 mAb (Santa Cruz Biotechnology, Inc sc-8438) (1:660 dilution) and HRP-conjugate secondary Ab (Jackson Immuno-Research) (1:6600 dilution).

[2] = test system: IL-10L; test: Serum IL-10L levels in air-exposure stressed fish after AS101 bath immersion (ELISA); format: in vivo
Protocol: For in-vitro studies, AS101 was supplied as PBS solution, pH 7.4, at 4° C. For in-vivo experiments, AS101 powder was dissolved in the appropriate concentration in re-circulating water.
(§1) Fish were subjected to air exposure stress every 60 min for 90 sec during 4 hours (10). The fish were then divided into groups of 3, each separately held in 40 L plastic containers at 28°±2° C.
Fish blood was coagulated during 2 hours at room temperature, then centrifuged for 10 min at 1800×g. IL-10L levels were quantified in the collected sera using ELISA (Human Interleukin-10 ELISA Kit, pierce-endogen) according to manufacturer's instructions.

[3] = test system: Aeromonas salmonicida; test: Stressed fish infected with Aeromonas salmonicida and immersed in soluble AS101; format: in vivo, goldfish (Carassius auratus); conditions: vs stressed infected fish not treated with AS101
Protocol: as §1

[4] = test system: tilapia PBL (peripheral blood leukocytes); test: Cell toxicity in AS101-treated cell cultures (Blue staining); format: cell-based, Tilapia hybrids (Oreochromis niloticus X O. aureus); conditions: all AS101 doses, vs control
Protocol: PBL (peripheral blood leukocytes) were isolated from heparinized blood on a ficoll paque bed (Amersham Bioscience) and cultured as previously reported (9). For AS101 treatments, AS101 was added directly to the cultures at final concentration of 0.025 to 25 μg/ml, preferably 0.05 to 0.5 μg/ml.

Q: Which results are given for `Cl[TeH]1(Cl)(Cl)OCCO1` [AS101, ammonium trichloro [dioxyethylene-O, O′] telurate]?
A: inhibition of intracellular tilapia IL-10L synthesis [1]: complete inhibition; serum IL-10L level ([2]; 2 hours post-stress, bath immersion in 20-ppm water solution, maximal effect, decrease from 719 in stressed fish, FIG. 3): 209 pg/mL; serum IL-10L change ([2]; 6 hours after stress induction and bath immersion in different AS101 concentrations, 20 μg/ml most efficient): significant IL-10L decrease; rate of survival ([3]; FIG. 5): higher survival rates; also recorded: higher rate of survival; number of wounds per fish ([3]; p=0.073, FIG. 4): significantly lower number of wounds per fish; also recorded: significantly less wounds; cell death (cell toxicity) [4]: did not show elevated cell death beyond control
